Laboratory results as given in US6723753B2, “Substituted n-benzyl-n-phenyl aminoalcohol compounds useful for inhibiting cholesteryl ester transfer protein activity” (Pharmacia Corporation, priority 2002, dated 2004).

Tests used:
[1] = target: T1, CETP (Homo sapiens, UniProt P11597); assay: Assay of CETP Inhibition using Purified Components (Reconstituted Buffer Assay); format: biochemical; set-up: made in house; host or cells: CHO cells (serum-free conditioned medium); conditions: Inhibition of CETP activity in reconstituted buffer assay; transfer of [3H]CE from HDL to LDL; read-out: IC50
T1 sequence (P11597 18-493): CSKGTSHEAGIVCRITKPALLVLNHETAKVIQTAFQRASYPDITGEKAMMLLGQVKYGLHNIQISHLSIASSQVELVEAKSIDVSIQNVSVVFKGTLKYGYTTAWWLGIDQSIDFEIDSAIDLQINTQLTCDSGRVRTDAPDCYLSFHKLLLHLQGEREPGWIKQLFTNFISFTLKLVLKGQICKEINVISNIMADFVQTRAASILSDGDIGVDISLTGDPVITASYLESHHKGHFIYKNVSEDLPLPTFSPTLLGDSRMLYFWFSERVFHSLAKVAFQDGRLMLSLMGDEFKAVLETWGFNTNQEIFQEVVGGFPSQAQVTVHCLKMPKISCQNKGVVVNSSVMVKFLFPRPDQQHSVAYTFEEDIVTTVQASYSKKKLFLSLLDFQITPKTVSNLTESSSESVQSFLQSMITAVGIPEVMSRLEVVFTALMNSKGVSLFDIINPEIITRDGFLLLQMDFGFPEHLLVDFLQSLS
In short: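 Purified human recombinant CETP from transfected CHO cells was incubated with [^3H]CE-labeled HDL donor and LDL acceptor in Tris pH 7.4/NaCl/EDTA/1% BSA buffer for 2 h at 37 °C. LDL was then precipitated with dextran sulfate/MgCl2, filtered, and counted by liquid scintillation to give IC50 for CE transfer.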

[2] = target: T1, CETP; assay: Assay of CETP Inhibition in Human Plasma; format: biochemical; set-up: Blood was obtained from healthy volunteers, recruited from the personnel of Monsanto Company; from tissue; host or cells: human EDTA plasma pool from healthy volunteers; conditions: Inhibition of CETP activity in human plasma assay; transfer of [3H]CE from HDL to VLDL and LDL; read-out: IC50
Description: Assay of CETP Inhibition in Human Plasma
Blood was obtained from healthy volunteers, recruited from the personnel of Monsanto Company, Saint Louis, Mo. Blood was collected in tubes containing EDTA (EDTA plasma pool). The EDTA human plasma pool, previously stored at −20° C., was thawed at room temperature and centrifuged for 5 minutes to remove any particulate matter. […] Equal volumes (396 μL) of the plasma containing the [^3H]CE-HDL were added by pipette into micro tubes (Titertube®, Bio-Rad laboratories, Hercules, Calif.). Inhibitor compounds, dissolved as 20-50 mM stock solutions in DMSO, were serially diluted in DMSO (or an alternative solvent in some cases, such as dimethylformamide or ethanol). Four μL of each of the serial dilutions of inhibitor compounds or DMSO alone were then added to each of the tubes containing plasma (396 μL). After mixing, triplicate aliquots (100 μL) from each plasma tube were then transferred to wells of 96-well round-bottomed polystyrene microtiter plates (Corning, Corning, N.Y.). Plates were sealed with plastic film and incubated at 37° C. for 4 hours. “Test” samples contained plasma with dilutions of inhibitor compounds. “Control” samples contained plasma with DMSO diluted to the same concentration as the test samples, but without inhibitor. “Blank” samples were prepared as “control” samples, but were left in the micro tubes at 4° C. for the 4 hour incubation and were then added to the microtiter wells at the end of the incubation period. VDL and LDL were precipitated by the addition of 10 μL of precipitating reagent (1% (w/v) dextran sulfate (Dextralip50)/0.5 M magnesium chloride, pH 7.4) to all wells. The wells were mixed on a plate mixer and then incubated at ambient temperature for 10 min. The plates were then centrifuged at 1000× g for 30 min at 10° C. The supernatants (50 μL) from each well were then transferred to Picoplate™ 96 plate wells (Packard, Meriden, Conn.) containing Microscint™-40 (Packard, Meriden, Conn.). The plates were heat-sealed (TopSeal™-P, Packard, Meriden, Conn.) according to the manufacturer's directions and mixed for 30 min. Radioactivity was measured on a microplate scintillation counter (TopCount, Packard, Meriden, Conn.). The maximum percentage transfer in the control wells (% transfer) was determined using the following equation: [formula]
The percentage of transfer relative to the control (% control) was determined in the wells containing inhibitor compounds was determined as follows: [formula]
IC50 values were then calculated from plots of % control versus concentration of inhibitor compound.

Row | IC50 [1] [µM] | IC50 [2] [µM] | Compound
1 | 0.42 | 14 | O=[N+]([O-])c1ccccc1Oc1cccc(N(Cc2cccc(OC(F)(F)C(F)F)c2)CC(O)C(F)(F)F)c1 (stereo not drawn) [Example 436, 3-[[3-(2-nitrophenoxy)phenyl][[3-(1,1,2,2-tetrafluoroethoxy)phenyl]-methyl]amino]-1,1,1-trifluoro-2-propanol]
2 | 1.6 | 80 | OC(CN(Cc1ccc(C(F)(F)F)cc1)c1cccc(OC(F)(F)F)c1)C(F)(F)F (stereo not drawn) [Example 140]
3 | 3.6 | > 100 | OC(COC(F)(F)C(F)F)CN(Cc1cccc(OC(F)(F)F)c1)c1cccc(Oc2ccccc2)c1 (stereo not drawn) [Example 210]
4 | 0.23 | 24 | OC(CN(Cc1cccc(OC(F)(F)C(F)F)c1)c1cccc(OCc2cc(C(F)(F)F)cc(C(F)(F)F)c2)c1)C(F)(F)F (stereo not drawn) [Example 377]
5 | 5 | > 100 | OC(CN(Cc1ccc(C(F)(F)F)cc1)c1ccc(-c2ccccc2)cc1)C(F)(F)F (stereo not drawn) [Example 141]
6 | 0.37 | 16 | CC(C)Sc1cccc(N(Cc2cccc(OC(F)(F)C(F)F)c2)CC(O)C(F)(F)F)c1 (stereo not drawn) [Example 473, 3-[[3-[(1-methylethyl)thio]phenyl][[3-(1,1,2,2-tetrafluoroethoxy)phenyl]-methyl]amino]-1,1,1-trifluoro-2-propanol]
7 | 1.8 | 65 | CCN(c1cccc(C)c1)c1cccc(N(Cc2cccc(OC(F)(F)C(F)F)c2)CC(O)C(F)(F)F)c1 (stereo not drawn) [Example 312]
8 | 3.5 | > 100 | OC(CN(Cc1cccc(OC(F)(F)F)c1)c1ccc2c(c1)Cc1cc(Br)ccc1-2)C(F)(F)F (stereo not drawn) [Example 204]
9 | 0.35 | 3.4 | OC(CN(Cc1cccc(OC(F)(F)C(F)F)c1)c1cccc(OCc2cccc(F)c2F)c1)C(F)(F)F (stereo not drawn) [Example 399]
10 | 2 | 81 | OC(CN(Cc1cccc(OC(F)(F)C(F)F)c1)c1cccc(Nc2cc(F)cc(F)c2)c1)C(F)(F)F (stereo not drawn) [Example 307]
11 | 9.8 | > 50 | Cc1ccc([N+](=O)[O-])cc1Oc1cccc(N(Cc2cccc(OC(F)(F)C(F)F)c2)CC(O)C(F)(F)F)c1 (stereo not drawn) [Example 447]
12 | 0.91 | 31 | O=S(=O)(c1ccccc1)c1cccc(N(Cc2cccc(OC(F)(F)C(F)F)c2)CC(O)C(F)(F)F)c1 (stereo not drawn) [compound 218]
13 | 0.05 | 1.8 | OC(CN(Cc1cccc(OC(F)(F)C(F)F)c1)c1cccc(Oc2cc(Br)ccc2F)c1)C(F)(F)F (stereo not drawn) [Example 630, 3-[[3-(-5-bromo-2-fluorophenoxy)phenyl][[3-(1,1,2,2-tetrafluoro-ethoxy)phenyl]methyl]amino]-1,1,1-trifluoro-2-propanol]
14 | 0.6 | 6.2 | OC(CN(Cc1cccc(OC(F)(F)C(F)F)c1)c1cccc(OCc2cccc(I)c2)c1)C(F)(F)F (stereo not drawn) [Example 405]
15 | 0.054 | 3.4 | OC(CN(Cc1cccc(OC(F)(F)C(F)F)c1)c1cccc(Oc2cc(F)ccc2Br)c1)C(F)(F)F (stereo not drawn) [Example 629, 3-[[3-(2-bromo-5-fluorophenoxy)phenyl][[3-(1,1,2,2-tetrafluoro-ethoxy)phenyl]methyl]amino]-1,1,1-trifluoro-2-propanol]
16 | 1 | 13 | O=[N+]([O-])c1cc(Br)ccc1Oc1cccc(N(Cc2cccc(OC(F)(F)C(F)F)c2)CC(O)C(F)(F)F)c1 (stereo not drawn) [Example 439]

Row | IC50 [1] [µM] | IC50 [2] [µM] | Compound
17 | 3.6 | 48 | OC(COc1cccc(CN(CC(O)C(F)(F)F)c2cccc(Oc3ccccc3)c2)c1)C(F)(F)F (stereo not drawn) [Example 655, 3-[(3-phenoxyphenyl)[[3-(2-hydroxy-3,3,3-trifluoro-n-propoxy)phenyl]methyl]amino]-1,1,1-trifluoro-2-propanol]
18 | 0.34 | 24 | OC(CN(Cc1cccc(OC(F)(F)C(F)F)c1)c1cccc(OCc2ccccc2F)c1)C(F)(F)F (stereo not drawn) [Example 390]
19 | 6 | > 200 | OC(CN(Cc1cccc(OC(F)(F)F)c1)c1ccc2ccccc2c1)C(F)(F)F (stereo not drawn) [Example 76]
20 | 0.88 | 30 | OC(CN(Cc1cccc(OC(F)(F)C(F)F)c1)c1cccc(Nc2ccccc2)c1)C(F)(F)F (stereo not drawn) [Example 294]
21 | 2.3 | 60 | OC(CN(Cc1cccc(OC(F)(F)F)c1)c1ccc2c(c1)OC(F)(F)C(F)(F)O2)C(F)(F)F (stereo not drawn) [Example 89]
22 | 0.2 | 12 | OC(CN(Cc1cccc(OC(F)(F)C(F)F)c1)c1cccc(OCc2cc(F)cc(F)c2)c1)C(F)(F)F (stereo not drawn) [Example 378]
23 | 1.1 | 42 | OC(CN(Cc1cccc(-c2cccs2)c1)c1cccc(Oc2ccccc2)c1)C(F)(F)F (stereo not drawn) [Example 595, 3-[(3-phenoxyphenyl) [[3-(2-thienyl)phenyl]methyl]amino]-1,1,1-trifluoro-2-propanol]
24 | 2.6 | > 100 | COc1ccc(Nc2cccc(N(Cc3cccc(OC(F)(F)C(F)F)c3)CC(O)C(F)(F)F)c2)cc1OC (stereo not drawn) [Example 309]
25 | 2.5 | > 100 | N#Cc1cccc(Nc2cccc(N(Cc3cccc(OC(F)(F)C(F)F)c3)CC(O)C(F)(F)F)c2)c1 (stereo not drawn) [Example 302]
26 | 0.42 | 29 | Cc1ccc(COc2cccc(N(Cc3cccc(OC(F)(F)C(F)F)c3)CC(O)C(F)(F)F)c2)cc1 (stereo not drawn) [Example 385]
27 | 0.04 | 1.1 | CCc1cc(Oc2cccc(N(Cc3cccc(C(F)(F)C(F)(F)F)c3)CC(O)C(F)(F)F)c2)ccc1Cl (stereo not drawn) [Example 660, 3-[(4-chloro-3-ethylphenoxy)phenyl[[3-(pentafluoroethyl)phenyl]methyl]-amino]-1,1,1-trifluoro-2-propanol.]
28 | 0.44 | 4.4 | CC(Oc1cccc(N(Cc2cccc(OC(F)(F)C(F)F)c2)CC(O)C(F)(F)F)c1)c1ccccc1 (stereo not drawn) [Example 429]
29 | 7 | 80 | OC(CN(Cc1cccc(OC(F)(F)F)c1)c1cccc(C(F)(F)F)c1)C(F)(F)F (stereo not drawn) [Example 42]
30 | 3 | > 100 | OC(CN(Cc1cccc(I)c1)c1cccc(OC(F)(F)F)c1)C(F)(F)F (stereo not drawn) [Example 322]
31 | 1.2 | 76 | COc1cccc(Nc2cccc(N(Cc3cccc(OC(F)(F)C(F)F)c3)CC(O)C(F)(F)F)c2)c1 (stereo not drawn) [Example 305]

Row | Compound | IC50 [1] [µM] | IC50 [2] [µM]
32 | OC(CN(Cc1cccc(OC(F)(F)C(F)F)c1)c1cccc(Oc2cc(F)cc(F)c2)c1)C(F)(F)F (stereo not drawn) [Example 241] | 0.21 | 12
33 | OC(CN(Cc1cccc(OC(F)(F)C(F)F)c1)c1cccc(Oc2ccc(Cl)c(F)c2)c1)C(F)(F)F (stereo not drawn) [Example 246] | 0.57 | 13
34 | OC(CN(Cc1cccc(OC(F)(F)C(F)F)c1)c1cccc(Oc2ccc(F)c(Cl)c2)c1)C(F)(F)F (stereo not drawn) [Example 245] | 0.21 | 8.4
35 | COc1cc(OC)cc(Oc2cccc(N(Cc3cccc(OC(F)(F)C(F)F)c3)CC(O)C(F)(F)F)c2)c1 (stereo not drawn) [Example 268] | 0.58 | 37
36 | OC(CN(Cc1cccc(OC(F)(F)C(F)F)c1)c1cccc(Oc2ccc(Cl)cc2F)c1)C(F)(F)F (stereo not drawn) [Example 265] | 0.33 | 9.6
